{"source": "PubChem BioAssay AID550", "about": "(SRMLSC, 2006)", "note": "Active and inactive are the calls of the source.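 Rule for the calls: active = clearly stronger inhibition of the target decarboxylase than of the coupling enzymes tested in parallel without it; inactive = the rest.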", "data": [{"target": "not listed separately", "test": "S. pneumoniae DPM-DC inhibitor potency, dose response, biochemical, PK/LDH-coupled NADH fluorescence, hexokinase coupling counter-screen (AID 550)", "conditions": "purified DPM-DC, measured here: coupling enzymes counter-screen (hexokinase)", "units": {"IC50": "µM"}, "values": [{"smiles": "CC(/C=N/n1cnnc1)=C\\c1ccco1", "IC50": 3440}, {"smiles": "CN(C)[C@@H]1C(=O)C(C(N)=O)=C(O)[C@@]2(O)C(=O)C3=C(O)c4c(O)cccc4[C@@](C)(O)[C@H]3[C@H](O)[C@@H]12", "IC50": 125}, {"smiles": "Clc1cccc(-c2ccc(/C=N/n3cnnc3)o2)c1", "IC50": 3720}, {"smiles": "Nc1nc2c(s1)CCc1c-2cnn1-c1ccccc1", "IC50": 21}, {"smiles": "COC(=O)Sc1nnc(-c2ccc(Br)cc2)o1", "IC50": 19.6}, {"smiles": "CCn1nc(-c2ccccc2)nc2c(=O)n(C)c(=O)nc1-2", "IC50": 13.5}, {"smiles": "O=C(O)c1cccn2c(=O)c3ccccc3nc12", "IC50": 54}, {"smiles": "O=c1c2ccccc2[se]n1-c1ccccc1", "IC50": 38.4}, {"smiles": "CCn1nc(-c2cccs2)nc2c(=O)n(C)c(=O)nc1-2", "IC50": 5.99}, {"smiles": "CCN(CC)c1ccc(/C=N/n2c(=S)[nH]nc(C)c2=O)cc1", "IC50": 39.5}]}, {"target": "diphosphomevalonate decarboxylase (Streptococcus pneumoniae D39)", "test": "S. pneumoniae DPM-DC inhibitor potency, dose response, biochemical, PK/LDH-coupled NADH fluorescence, hexokinase coupling counter-screen (AID 550)", "conditions": "purified DPM-DC", "values": [{"smiles": "CN(C)[C@@H]1C(=O)C(C(N)=O)=C(O)[C@@]2(O)C(=O)C3=C(O)c4c(O)cccc4[C@@](C)(O)[C@H]3[C@H](O)[C@@H]12", "IC50": "inactive"}, {"smiles": "Cc1c(C(=O)NCc2ccc3c(c2)OCO3)sc2nc(-c3ccccc3)cn12", "outcome": "inactive"}, {"smiles": "CC1=C(C(=O)OCC2CCCO2)C(c2ccncc2)C2=C(CCCC2=O)N1", "note": "(stereo unspecified)", "IC50": "inactive"}, {"smiles": "CCOc1nc(-c2ccccc2)ccc1-c1noc(-c2ccc(OC)c(OC)c2)n1", "outcome": "inactive"}, {"smiles": "Cc1cc(C)c(S(=O)(=O)NCc2cn3c(C)csc3n2)cc1C", "outcome": "inactive"}, {"smiles": "COc1cc2c(cc1NC(=O)c1ccc3c(c1)OCO3)oc1ccccc12", "outcome": "inactive"}, {"smiles": "Cc1nc2oc3c(NCc4ccccn4)ncnc3c2c2c1COC(C)(C)C2", "outcome": "inactive"}, {"smiles": "CCOC(=O)CSc1cc(=O)n(C)c2cc(Cl)ccc12", "outcome": "inactive"}, {"smiles": "O=C(CCc1nc(-c2ccccc2F)no1)NCCN1CCc2ccccc2C1", "outcome": "inactive"}, {"smiles": "N#C/C(=C\\C1CC=CCC1)c1nc2ccccc2[nH]1", "note": "(stereo unspecified)", "outcome": "inactive"}, {"smiles": "CCCOC(=O)Cc1n[nH]c(=O)[nH]c1=O", "outcome": "inactive"}, {"smiles": "CCOc1ccccc1OCC(=O)Nc1ccc(N2CCCCC2)cc1", "outcome": "inactive"}, {"smiles": "O/N=C1\\CCC\\C1=C/c1ccco1", "outcome": "inactive"}, {"smiles": "Cc1c(C(=O)OCC(C)(C)CN(C)C)oc2ccccc12", "outcome": "inactive"}, {"smiles": "C=C(C)Cn1c(COc2ccccc2)nnc1SCC(=O)O", "outcome": "inactive"}, {"smiles": "Cc1cc(=O)oc2cc(OC(C)C(=O)O)c(Cl)cc12", "note": "(stereo unspecified)", "outcome": "inactive"}, {"smiles": "Cn1c(-c2ccc(N)cc2)nc2ccccc21", "outcome": "inactive"}, {"smiles": "COc1ccc(C(c2nnnn2CC2CCCO2)N2CCN(c3ccccc3)CC2)cc1", "note": "(stereo unspecified)", "outcome": "inactive"}, {"smiles": "CCc1nnc(NC(=O)CSc2nnc(COc3ccccc3)n2Cc2ccccc2)s1", "outcome": "inactive"}, {"smiles": "Cc1occc1C(=O)Nc1nnc(C(F)(F)F)s1", "outcome": "inactive"}, {"smiles": "O=C1NC(=O)C(CC(=O)N(c2ccccc2)C2(C(=O)NC3CCCC3)CCCCC2)N1", "note": "(stereo unspecified)", "outcome": "inactive"}, {"smiles": "Cc1ccc(OCCn2c(C)c(/C=N/n3cnnc3)c3ccccc32)cc1", "outcome": "inactive"}, {"smiles": "O=c1c(-c2ccccc2)c(O)c2cccc3c2n1CCC3", "outcome": "inactive"}, {"smiles": "O=C(C1CCCCC1)N1CCC(c2nc3c(nnn3Cc3ccccc3Cl)c(=O)[nH]2)CC1", "outcome": "inactive"}, {"smiles": "CC(C)(O)P(C)(=O)c1ccccc1", "note": "(stereo unspecified)", "outcome": "inactive"}, {"smiles": "N#Cc1c(C(F)(F)F)cc(-c2ccco2)nc1SCc1ccncc1", "outcome": "inactive"}, {"smiles": "c1ccc(N2CCN(c3cnccn3)CC2)nc1", "outcome": "inactive"}, {"smiles": "Cc1cc(O)c(C=Nc2cccc(Cl)c2)c(=O)o1", "outcome": "inactive"}, {"smiles": "COCCOC(=O)c1c(C)oc2ccc(NS(=O)(=O)c3ccc(F)cc3)cc12", "outcome": "inactive"}, {"smiles": "COc1cccc(C(=O)Nc2ccc(NC(=O)C(C)C)nc2)c1", "outcome": "inactive"}, {"smiles": "Cc1ccsc1C1C(C(=O)O)c2ccccc2C(=O)N1C", "note": "(stereo unspecified)", "outcome": "inactive"}, {"smiles": "C/C=C/Cn1c(N(C)Cc2ccccc2)nc2c1c(=O)[nH]c(=O)n2C", "outcome": "inactive"}, {"smiles": "CCOC(=O)c1c(C)n(OCc2ccccc2)c2ccc3c(no[n+]3[O-])c12", "outcome": "inactive"}, {"smiles": "Cc1c(C(=O)NC2CC2)oc2ccc(S(=O)(=O)N3CCCCCC3)cc12", "outcome": "inactive"}, {"smiles": "Cc1cccc(C(=O)Nc2cc(=O)n(C)c(=O)n2C)c1", "outcome": "inactive"}, {"smiles": "COc1cc(C2C(C#N)=C(C)NC3=C2C(=O)CC(C)(C)C3)cc(OC)c1O", "note": "(stereo unspecified)", "outcome": "inactive"}, {"smiles": "Cc1cc(N2CCOCC2)c2c(N)c(Br)cc(C)c2n1", "outcome": "inactive"}, {"smiles": "COC(=O)c1cc2occc2n1CC(=O)Nc1ccc(OC)c(OC)c1OC", "outcome": "inactive"}, {"smiles": "CC(C)(CO)NC(=O)C(c1ccccc1)c1ccccc1", "outcome": "inactive"}, {"smiles": "CC(NC(=O)c1cccc(N2CCCC2=O)c1)c1ccc2c(c1)OCCO2", "note": "(stereo unspecified)", "outcome": "inactive"}, {"smiles": "Cc1cc(N2CCN(C3CCCC3)CC2)n2nc(C)c(-c3ccccc3)c2n1", "outcome": "inactive"}, {"smiles": "COc1cc(NC(=O)c2ccco2)c(OC)cc1NC(=O)CCC(=O)Nc1cc(C)ccc1C", "outcome": "inactive"}, {"smiles": "O=C1CCC(C(=O)N(Cc2ccco2)C2(C(=O)NC3CCCC3)CCCCC2)N1", "note": "(stereo unspecified)", "outcome": "inactive"}, {"smiles": "CCCCCn1c(SCC#N)nc2cc(C(=O)NCC3CCCO3)ccc2c1=O", "note": "(stereo unspecified)", "outcome": "inactive"}, {"smiles": "COc1ccc(C(=O)NCc2cn3c(C)csc3n2)cc1OC", "outcome": "inactive"}, {"smiles": "O=C1C(Cl)=C(NCC2CCCO2)C(=O)N1Cc1ccccc1", "note": "(stereo unspecified)", "outcome": "inactive"}, {"smiles": "COc1cc(NC(=O)c2cccs2)c(C(=O)OCC(=O)NCc2ccco2)cc1OC", "outcome": "inactive"}, {"smiles": "COc1ccc(-c2cc(C(F)(F)F)nc(SCCC(=O)Nc3cc(C)on3)n2)cc1", "outcome": "inactive"}, {"smiles": "CCCC(=O)Nc1ccc(N2CCN(C(=O)CCC)CC2)cc1", "outcome": "inactive"}, {"smiles": "CC(=O)c1cccc(NC(=O)Nc2cccnc2)c1", "outcome": "inactive"}, {"smiles": "CCCCC(=O)Nc1ccc(C(N)=O)cc1", "outcome": "inactive"}, {"smiles": "O=C(c1noc2c1CCCC2)N1CCCCC1", "outcome": "inactive"}, {"smiles": "CC(C)C(OC(=O)CN1C(=O)COc2ccccc21)C(=O)NC1CCCC1", "note": "(stereo unspecified)", "outcome": "inactive"}, {"smiles": "OCCNc1ncnc2c1c(-c1ccccc1)c(-c1ccccc1)n2Cc1ccco1", "outcome": "inactive"}, {"smiles": "Cc1cccc(C)c1NC(=O)C(c1ccccc1)N1CCN(C(=O)c2ccco2)CC1", "note": "(stereo unspecified)", "outcome": "inactive"}, {"smiles": "N#CC(C(=O)NC1CCCCC1)c1nc2ccccc2nc1N1CCCCC1", "note": "(stereo unspecified)", "outcome": "inactive"}, {"smiles": "Cc1cc(=O)cc(C)[nH]1", "outcome": "inactive"}, {"smiles": "Cn1c(=O)[nH]c(=O)c2c1nc(NC1CCCCC1)n2Cc1ccccc1", "outcome": "inactive"}, {"smiles": "CCN(CCNC(=O)C1CCN(c2nnc(-n3cccc3)s2)CC1)c1ccccc1", "outcome": "inactive"}, {"smiles": "COc1ccccc1NC(=O)C1=C(C)NC2=C(C(=O)CCC2)C1c1ccc2c(c1)OCO2", "note": "(stereo unspecified)", "IC50": "76.3 µM"}, {"smiles": "COc1cc(C(=O)Nc2ccc3c(c2)OCO3)ccc1-n1cnnn1", "outcome": "inactive"}, {"smiles": "COC(=O)c1cc(OC)c(OC)cc1NC(=O)c1oc2ccccc2c1C", "outcome": "inactive"}, {"smiles": "c1ccc(-c2nc3nonc3c3nc4ccccc4n23)cc1", "outcome": "inactive"}, {"smiles": "COc1ccc(N2CCN(CCNS(=O)(=O)c3cccc4nsnc34)CC2)cc1", "outcome": "inactive"}, {"smiles": "Cc1ccc2oc(=O)c3cnn(CC(=O)NC4CCN(Cc5ccccc5)CC4)c3c2c1", "outcome": "inactive"}, {"smiles": "CN(C)Cc1nc2ccccc2c(=O)n1Cc1nc(-c2cc3ccccc3o2)cs1", "outcome": "inactive"}, {"smiles": "Cc1ccc(S(=O)(=O)N2CCOCC(=O)NCCOCCNC(=O)COCC2)cc1", "outcome": "inactive"}, {"smiles": "CCN(CC)c1nc2ccccc2n2cnnc12", "outcome": "inactive"}, {"smiles": "CCOC(=O)c1c(Nc2nc(C)c(C(=O)NC)s2)sc(C)c1C", "outcome": "inactive"}, {"smiles": "Cn1c(SCC(=O)N2CCOCC2)nnc1-c1ccc(NC(=O)c2ccccc2F)cc1", "outcome": "inactive"}, {"smiles": "COCCNC(=O)c1cnn2c(C(F)(F)F)cc(-c3ccc4c(c3)OCO4)nc12", "outcome": "inactive"}, {"smiles": "CC(O)COc1ccc(/C(=N/O)c2ccccc2)cc1", "note": "(stereo unspecified)", "outcome": "inactive"}, {"smiles": "CCOc1ncccc1C(=O)Nc1ccc2c(C)cc(=O)oc2c1", "outcome": "inactive"}, {"smiles": "CC1CC(C)CN(CCCNC(=O)Cn2ncc3c(=O)oc4ccccc4c32)C1", "note": "(stereo unspecified)", "outcome": "inactive"}, {"smiles": "CSc1ncc(Cl)c(C(=O)Nc2nnc(SC)s2)n1", "outcome": "inactive"}, {"smiles": "CCOc1ccc(N(CC(=O)Nc2ccc(F)c(F)c2)S(=O)(=O)c2c(C)noc2C)cc1", "outcome": "inactive"}, {"smiles": "O=C1CC(c2cccnc2)c2cc3c(cc2N1)OCO3", "note": "(stereo unspecified)", "outcome": "inactive"}, {"smiles": "O=c1[nH]c(-c2ccncc2)nc2ccccc12", "outcome": "inactive"}, {"smiles": "Cc1cccc2cc(CN(Cc3ccco3)S(=O)(=O)c3ccc4c(c3)OCCO4)c(=O)[nH]c12", "outcome": "inactive"}, {"smiles": "CCOC(=O)C1=C(C)NC(C)=C(C(=O)OCC)C1c1cc2ccc(C)cc2[nH]c1=O", "IC50": "150 µM"}, {"smiles": "Cn1c(=NC(=O)c2ccco2)sc2cccc(F)c21", "outcome": "inactive"}, {"smiles": "O=C(CSc1nnc2ccccn12)Nc1ccccc1C(=O)NC1CC1", "outcome": "inactive"}, {"smiles": "Cc1cc(=O)[nH]c(/N=C(\\N)Nc2cccc3ccccc23)n1", "outcome": "inactive"}, {"smiles": "O=S(=O)(Nc1ccc(C(F)(F)F)cc1)c1cnc[nH]1", "outcome": "inactive"}, {"smiles": "CCc1ccc(NC(=O)c2cnc3scc(C)n3c2=O)cc1", "outcome": "inactive"}, {"smiles": "CCC(=O)Nc1nnc(Sc2ccc(N(C)C)cc2)s1", "outcome": "inactive"}]}]}
